# Data reported in US8623879B2, “1-heterocyclyl-1,5-dihydro-pyrazolo[3,4-D] pyrimidin-4-one derivates and their use as PDE9A modulators” (Boehringer Ingelheim International GmbH, priority 2008, dated 2014).
# Like-named read-outs stand apart in the source and are kept apart here.
# Target: T1, human PDE9A2 (Homo sapiens, UniProt O76083)
# T1 construct: made in house; host or cells: Sf9 insect cells (infected); crude lysate used as enzyme source
# Assay: PDE9A2 enzymatic activity assay (scintillation proximity assay, SPA)
# Assay type: biochemical
# Conditions: for IC50: reported only as range 1-100 or 101-1200 nanomolar, specific value lies within range
# [1] = read-out: % inhibition of PDE9A2 (at 10 micromolar concentration), 10 micromolar concentration, values above 100% adjusted to 100%
# [2] = read-out: IC50 within range [nanomolar (nM)]
# [3] = values above 100% adjusted to 100%
# T1 sequence (O76083 1-533 isoform O76083-2): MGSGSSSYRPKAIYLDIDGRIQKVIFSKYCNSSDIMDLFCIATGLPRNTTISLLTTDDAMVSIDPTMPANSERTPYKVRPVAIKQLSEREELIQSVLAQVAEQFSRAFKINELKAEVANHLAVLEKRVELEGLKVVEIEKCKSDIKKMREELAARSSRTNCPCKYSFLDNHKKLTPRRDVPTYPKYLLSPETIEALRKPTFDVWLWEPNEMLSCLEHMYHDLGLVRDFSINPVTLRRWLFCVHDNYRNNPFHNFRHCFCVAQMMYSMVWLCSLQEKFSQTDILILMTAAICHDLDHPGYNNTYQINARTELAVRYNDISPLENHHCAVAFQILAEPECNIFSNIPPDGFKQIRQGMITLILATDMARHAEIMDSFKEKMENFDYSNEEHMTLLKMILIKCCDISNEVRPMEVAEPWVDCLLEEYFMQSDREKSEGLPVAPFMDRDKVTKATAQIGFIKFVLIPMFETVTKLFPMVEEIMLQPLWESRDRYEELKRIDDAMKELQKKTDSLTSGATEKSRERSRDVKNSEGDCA
Structure (SMILES),inhibition at 10 µM [1],IC50 [2],% inhibition of PDE9A2 (at 10 micromolar concentration) [3],IC50 (IC50 within range [nanomolar (nM)]),inhibition at 10 µM (read-out: % inhibition of PDE9A2 (at 10 micromolar concentration))
O=c1[nH]c(Cc2cccnc2)nc2c1cnn2C1CCOC1 (racemic) [Example 78],99%,101 to 1200 nM,,,
COc1ccccc1Cc1nc2c(cnn2C2CCN(C)C2)c(=O)[nH]1 (racemic) [Example 212],92%,101 to 1200 nM,,,
O=c1[nH]c(Cc2ccc(F)c(Cl)c2)nc2c1cnn2C1CCCOC1 (racemic) [Example 102],100%,1 to 100 nM,,,
CC(C)Cc1nc2c(cnn2C2CCOC2)c(=O)[nH]1 (racemic) [Example 74],95%,1 to 100 nM,,,
O=c1[nH]c(Cc2c(F)cccc2Cl)nc2c1cnn2C1CCOCC1 [Example 6],98%,1 to 100 nM,,,
COc1ccccc1Cc1nc2c(cnn2C2CCOC2)c(=O)[nH]1 (racemic) [Example 83],96%,1 to 100 nM,,,
O=c1[nH]c(Cc2cccc(C(F)(F)F)c2)nc2c1cnn2C1CCOC1 (racemic) [Example 85],99%,1 to 100 nM,,,
CN1CCCC(n2ncc3c(=O)[nH]c(Cc4ccccc4F)nc32)C1 (racemic) [Example 217],97%,101 to 1200 nM,,,
CCOc1ccccc1Cc1nc2c(cnn2C2CCOC(C)(C)C2)c(=O)[nH]1 (racemic) [Example 105],84%,101 to 1200 nM,,,
O=c1[nH]c(CC2CCCC2)nc2c1cnn2C1CCOC1 (racemic) [Example 69],99%,1 to 100 nM,,,
CCC(Cc1nc2c(cnn2C2CCN(C)C2)c(=O)[nH]1)C(F)(F)F (mixture of isomers) [Example 213],86%,101 to 1200 nM,,,
O=c1[nH]c(CC2CC2)nc2c1cnn2C1CCSCC1 [Example 40-5],98%,1 to 100 nM,,,
CN1CCC(n2ncc3c(=O)[nH]c(CC4CCCC4)nc32)CC1 [Example 149],95%,101 to 1200 nM,,,
CC(c1ccccc1)c1nc2c(cnn2C2CCOCC2)c(=O)[nH]1 (racemic) [Example 14],96%,101 to 1200 nM,,,
O=c1[nH]c(Cc2ccccc2OCC2CC2)nc2c1cnn2C1CCOCC1 [Example 55],97%,1 to 100 nM,,,
COc1ccccc1Cc1nc2c(cnn2C2CCN(C(=O)c3ccccc3)C2)c(=O)[nH]1 (racemic) [Example 170],75%,101 to 1200 nM,,,
O=c1[nH]c(CC2CCC2)nc2c1cnn2C1CCCNC1 (racemic) [Example 206],82%,101 to 1200 nM,,,
CN1CCC(n2ncc3c(=O)[nH]c(CC4CCC4)nc32)C1 (racemic) [Example 214],98%,1 to 100 nM,,,

Structure (SMILES),inhibition at 10 µM [1],IC50 [2],% inhibition of PDE9A2 (at 10 micromolar concentration) [3],IC50 (IC50 within range [nanomolar (nM)]),inhibition at 10 µM (read-out: % inhibition of PDE9A2 (at 10 micromolar concentration))
O=c1[nH]c(Cc2ccccn2)nc2c1cnn2C1CCOCC1 [Example 51],96%,1 to 100 nM,,,
O=C(c1ccccc1)N1CCCC(n2ncc3c(=O)[nH]c(Cc4ccccn4)nc32)C1 (racemic) [Example 175],88%,101 to 1200 nM,,,
O=c1[nH]c(CC2CCOCC2)nc2c1cnn2C1CCOCC1 [Example 41],92%,101 to 1200 nM,,,
O=c1[nH]c(Cc2ccccn2)nc2c1cnn2C1CCCOC1 (racemic) [Example 94],96%,101 to 1200 nM,,,
O=c1[nH]c(CC2CCCCC2)nc2c1cnn2C1CCOCC1 [Example 144],100%,1 to 100 nM,,,
CC(=O)N1CCCC(n2ncc3c(=O)[nH]c(Cc4ccccc4F)nc32)C1 (racemic) [Example 187],96%,1 to 100 nM,,,
COc1cccc(Cl)c1Cc1nc2c(cnn2C2CCOCC2)c(=O)[nH]1 [Example 33],97%,1 to 100 nM,,,
"O=c1[nH]c(CC2CCC2)nc2c1cnn2C1CCOC1 (single isomer, unassigned) [Example 132-6]",99%,1 to 100 nM,,,
O=c1[nH]c(CC2CCCC2)nc2c1cnn2C1CCCOC1 (racemic) [Example 90],100%,1 to 100 nM,,,
CC(Cc1nc2c(cnn2C2CCOC2)c(=O)[nH]1)C(F)(F)F (mixture of isomers) [Example 72],91%,101 to 1200 nM,,,
CCCCc1nc2c(cnn2C2CCOCC2)c(=O)[nH]1 [Example 8],100%,1 to 100 nM,,,
CCOc1ccccc1Cc1nc2c(cnn2C2CCCN(C(=O)OC(C)(C)C)C2)c(=O)[nH]1 (racemic) [Example 30],100%,1 to 100 nM,,,
N#Cc1ccccc1Cc1nc2c(cnn2C2CCOC2)c(=O)[nH]1 (racemic) [Example 88],96%,1 to 100 nM,,,
O=c1[nH]c(CC2CCC2)nc2c1cnn2C1CCCN(CC(F)(F)F)C1 (racemic) [Example 192],100%,101 to 1200 nM,,,
CC(=O)N1CCCC(n2ncc3c(=O)[nH]c(Cc4ccccc4OC(F)(F)F)nc32)C1 (racemic) [Example 188],96%,1 to 100 nM,,,
COc1ccccc1Cc1nc2c(cnn2C2CCCOC2)c(=O)[nH]1 (racemic) [Example 127],97%,1 to 100 nM,,,
O=c1[nH]c(Cc2ccccc2)nc2c1cnn2C1CCNC1 (racemic) [Example 199],88%,101 to 1200 nM,,,
CN1CCCC(n2ncc3c(=O)[nH]c(Cc4cccc(C(F)(F)F)c4)nc32)C1 (racemic) [Example 216],96%,1 to 100 nM,,,

# Continued, values first:
inhibition at 10 µM [1],IC50 [2],% inhibition of PDE9A2 (at 10 micromolar concentration) [3],IC50 (IC50 within range [nanomolar (nM)]),inhibition at 10 µM (read-out: % inhibition of PDE9A2 (at 10 micromolar concentration)),Structure (SMILES)
97%,1 to 100 nM,,,,CC1CC(n2ncc3c(=O)[nH]c(CC4CCCC4)nc32)CCO1 (racemic) [Example 112]
97%,1 to 100 nM,,,,CC(=O)N1CCCC(n2ncc3c(=O)[nH]c(CC4CCCC4)nc32)C1 (racemic) [Example 157]
95%,101 to 1200 nM,,,,O=c1[nH]c(Cc2ccccn2)nc2c1cnn2C1CCOC1 (racemic) [Example 124]
97%,1 to 100 nM,,,,CCOc1ccccc1Cc1nc2c(cnn2C2CCCOC2)c(=O)[nH]1 (racemic) [Example 93]
98%,1 to 100 nM,,,,O=c1[nH]c(Cc2ccc(F)cc2Cl)nc2c1cnn2C1CCOCC1 [Example 10]
89%,101 to 1200 nM,,,,CC1(C)CC(n2ncc3c(=O)[nH]c(CC4CCC4)nc32)CCO1 (racemic) [Example 108]
93%,101 to 1200 nM,,,,O=C(c1ccccc1)N1CCC(n2ncc3c(=O)[nH]c(CC4CCCC4)nc32)C1 (racemic) [Example 167]
,101 to 1200 nM,90%,,,"CC(Cc1nc2c(cnn2C2CCOCC2)c(=O)[nH]1)C(F)(F)F (single isomer, unassigned) [Example 132]"
96%,1 to 100 nM,,,,O=c1[nH]c(Cc2ccccc2O[C@H]2CCOC2)nc2c1cnn2C1CCOCC1 [Example 58]
100%,1 to 100 nM,,,,CC(C)(C)OC(=O)N1CCCC(n2ncc3c(=O)[nH]c(CC4CCCC4)nc32)C1 (racemic) [Example 17]
,,,1 to 100 nM,99%,O=c1[nH]c(Cc2ccccc2)nc2c1cnn2C1CCOCC1 [Example 40]
100%,1 to 100 nM,,,,CCOc1ccccc1Cc1nc2c(cnn2C2CCOC2)c(=O)[nH]1 (racemic) [Example 82]
89%,101 to 1200 nM,,,,CCC(Cc1nc2c(cnn2C2CCCN(C(=O)c3ccccc3)C2)c(=O)[nH]1)C(F)(F)F (mixture of isomers) [Example 174]
99%,1 to 100 nM,,,,CC(C)(C)OC(=O)N1CCCC(n2ncc3c(=O)[nH]c(Cc4ccccc4F)nc32)C1 (racemic) [Example 23]
100%,1 to 100 nM,,,,CN(C)C(=O)N1CCCC(n2ncc3c(=O)[nH]c(Cc4ccccc4)nc32)C1 (racemic) [Example 159]
98%,1 to 100 nM,,,,"CCC(CC)Cc1nc2c(cnn2C2CCOCC2)c(=O)[nH]1 [Example 133, 6-(2-Ethyl-butyl)-1-(tetrahydro-pyran-4-yl)-1,5-dihydro-pyrazolo[3,4-d]pyrimidin-4-one]"
99%,1 to 100 nM,,,,O=C(c1ccccc1)N1CCCC(n2ncc3c(=O)[nH]c(CC4CCCC4)nc32)C1 (racemic) [Example 183]
,101 to 1200 nM,92%,,,CC(C)Cc1nc2c(cnn2C2CCOC(C)C2)c(=O)[nH]1 (racemic) [Example 115]
97%,1 to 100 nM,,,,O=c1[nH]c(CC2CCC2)nc2c1cnn2C1CCOC1 (racemic) [Example 73]
100%,1 to 100 nM,,,,O=c1[nH]c(CC2CCCCCC2)nc2c1cnn2C1CCOCC1 [Example 1]
94%,1 to 100 nM,,,,"O=c1[nH]c(Cc2ccccn2)nc2c1cnn2C1CCOC1 (single isomer, unassigned) [Example 132-7]"
98%,1 to 100 nM,,,,O=c1[nH]c(Cc2ccc(F)cc2)nc2c1cnn2C1CCCOC1 (racemic) [Example 101]
,1 to 100 nM,97%,,,CC1CC(n2ncc3c(=O)[nH]c(CC4CCCC4)nc32)CCO1 (racemic) [Example 117]
92%,101 to 1200 nM,,,,O=c1[nH]c(CC2CCCC2)nc2c1cnn2C1CCCN(CC(F)(F)F)C1 (racemic) [Example 191]
89%,101 to 1200 nM,,,,CCC(Cc1nc2c(cnn2C2CCOC2)c(=O)[nH]1)C(F)(F)F (mixture of isomers) [Example 77]
98%,1 to 100 nM,,,,CC(C)Cc1nc2c(cnn2C2CCCN(C(=O)OC(C)(C)C)C2)c(=O)[nH]1 (racemic) [Example 31]
